Test results from publication PMC10187092 (Emerging Microbes & Infections, 2023).

Key:
[1] = target: SARS-CoV-2 3CLpro (wild-type) (Severe acute respiratory syndrome coronavirus 2, UniProt P0DTD1); format: cell-based
SARS-CoV-2 3CLpro = SARS-CoV-2 3CLpro (Severe acute respiratory syndrome coronavirus 2, UniProt P0DTD1); format: cell-based

Compound	potency in dose-response validation [1]	rescue of reporter expression in 3CLpro transfected cells (SARS-CoV-2 3CLpro)	inhibition of 3CLpro [1]
CC(C)(C)NC(=O)N[C@H](C(=O)N1C[C@H]2[C@@H]([C@H]1C(=O)NC(CC1CCC1)C(=O)C(N)=O)C2(C)C)C(C)(C)C (stereo partly drawn) [Boceprevir]	weak to moderate potency		
Ac-DEVD-CHO		failed to rescue reporter expression	
Z-FA-FMK	weak to moderate potency		
Cc1ccc(NC(=O)c2ccc(CN3CCN(C)CC3)cc2)cc1Nc1nc(-c2cccnc2)cs1 [Masitinib]			negative
O=c1c2ccccc2[se]n1-c1ccccc1 [Ebselen]			no inhibition
CCO[C@@H]1OC(=O)C[C@@H]1NC(=O)[C@@H]1CCCN1C(=O)[C@@H](NC(=O)c1ccc(N)c(Cl)c1)C(C)(C)C [Belnacasan]		failed to rescue reporter expression	
